Laboratory results as given in patent US11384083B2, “Substituted spiro[cyclopropane-1,5′-pyrrolo[2,3-d]pyrimidin]-6′(7′h)-ones as CDK2 inhibitors” (Incyte Corporation, priority 2019, dated 2022).

Each compound was assayed against CDK2/Cyclin E1 (Homo sapiens (Human), UniProt P24941) (assay: CDK2/Cyclin E1 HTRF enzyme activity assay). Conditions: 1 mM ATP.
Format: biochemical
Method: Example A. CDK2/Cyclin E1 HTRF Enzyme Activity Assay
CDK2/Cyclin E1 enzyme activity assays utilized full-length human CDK2 co-expressed as N-terminal GST-tagged protein with FLAG-Cyclin E1 in a baculovirus expression system (Carna Product Number 04-165). Assays were conducted in white 384-well polystyrene plates in a final reaction volume of 8 μL. CDK2/Cyclin E1 (0.25 nM) was incubated with compounds (40 nL serially diluted in DMSO) in the presence of ATP (50 μM or 1 mM) and 50 nM ULight™-labeled eIF4E-binding protein 1 (THR37/46) peptide (PerkinElmer) in assay buffer (containing 50 mM HEPES pH 7.5, 1 mM EGTA, 10 mM MgCl2, 2 mM DTT, 0.05 mg/mL BSA, and 0.01% Tween 20) for 60 minutes at room temperature. The reactions were stopped by the addition of EDTA and Europium-labeled anti-phospho-4E-BP1 antibody (PerkinElmer), for a final concentration of 15 mM and 1.5 nM, respectively. HTRF signals were read after 1 hour at room temperature on a PHERAstar FS plate reader (BMG Labtech). Data were analyzed with IDBS XLFit and GraphPad Prism 5.0 software using a three or four parameter dose response curve to determine IC50 for each compound.

IC50, ≤ 50 nM:
CCN1CC(n2cc(S(=O)(=O)N3CCC(Nc4ncc5c(n4)N([C@@H](C)C4CC4)C(=O)C54CC4)CC3)cn2)C1 [Example 16, (S)-7′-(1-cyclopropylethyl)-2′-((1-((1-(1-ethylazetidin-3-yl)-1H-pyrazol-4-yl)sulfonyl)piperidin-4-yl)amino)spiro[cyclopropane-1,5′-pyrrolo[2,3-d]pyrimidin]-6′(7′H)-one]
C[C@@H](C1CC1)N1C(=O)C2(CC2)c2cnc(NC3CCN(S(=O)(=O)c4ccc(=O)[nH]c4)CC3)nc21 [Example 15, (S)-7′-(1-cyclopropylethyl)-2′-((1-((6-oxo-1,6-dihydropyridin-3-yl)sulfonyl)piperidin-4-yl)amino)spiro[cyclopropane-1,5′-pyrrolo[2,3-d]pyrimidin]-6′(7′H)-one]
Cn1cc(S(=O)(=O)N2CCC(Nc3ncc4c(n3)N([C@@H]3CCC[C@@H](O)C3)C(=O)C43CC3)CC2)cn1 [Example 12, 7′-((1R,3R)-3-hydroxycyclohexyl)-2′-((1-((1-methyl-1H-pyrazol-4-yl)sulfonyl)piperidin-4-yl)amino)spiro[cyclopropane-1,5′-pyrrolo[2,3-d]pyrimidin]-6′(7′H)-one]
O=C1N([C@@H]2CCC[C@@H](O)C2)c2nc(NC3CCN(S(=O)(=O)c4cccc(N5CCC5)n4)CC3)ncc2C12CC2 [Example 13, 2′-((1-((6-(azetidin-1-yl)pyridin-2-yl)sulfonyl)piperidin-4-yl)amino)-7′-((1R,3R)-3-hydroxycyclohexyl)spiro[cyclopropane-1,5′-pyrrolo[2,3-d]pyrimidin]-6′(7′H)-one]
CC1CCCC1N1C(=O)C2(CC2)c2cnc(NC3CCN(S(C)(=O)=O)CC3)nc21 (stereo not shown) [Example 8, 7′-(2-Methylcyclopentyl)-2′-((1-(methylsulfonyl)piperidin-4-yl)amino)spiro[cyclopropane-1,5′-pyrrolo[2,3-d]pyrimidin]-6′(7′H)-one]
CCn1cnc(S(=O)(=O)N2CCC(Nc3ncc4c(n3)N(c3cc(F)ccc3Cl)C(=O)C43CC3)CC2)c1 [Example 19, 7′-(2-chloro-5-fluorophenyl)-2′-((1-((1-ethyl-1H-imidazol-4-yl)sulfonyl)piperidin-4-yl)amino)spiro[cyclopropane-1,5′-pyrrolo[2,3-d]pyrimidin]-6′(7′H)-one]
Cn1cc(S(=O)(=O)N2CCC(Nc3ncc4c(n3)N(C3CCCC3)C(=O)C43CC3)CC2)cn1 [Example 7, 7′-Cyclopentyl-2′-((1-((1-methyl-1H-pyrazol-4-yl)sulfonyl)piperidin-4-yl)amino)spiro[cyclopropane-1,5′-pyrrolo[2,3-d]pyrimidin]-6′(7′H)-one]
O=C1N(c2cc3c(cc2Cl)CNCC3)c2nc(NC3CCN(S(=O)(=O)c4ncc[nH]4)CC3)ncc2C12CC2 [Example 18, 2′-((1-((1H-imidazol-2-yl)sulfonyl)piperidin-4-yl)amino)-7′-(7-chloro-1,2,3,4-tetrahydroisoquinolin-6-yl)spiro[cyclopropane-1,5′-pyrrolo[2,3-d]pyrimidin]-6′(7′H)-one]
O=C1N(C2CCCC2)c2nc(NC3CCN(S(=O)(=O)c4cccnc4)CC3)ncc2C12CC2 [Example 5, 7′-Cyclopentyl-2′-((1-(pyridin-3-ylsulfonyl)piperidin-4-yl)amino)spiro[cyclopropane-1,5′-pyrrolo[2,3-d]pyrimidin]-6′(7′H)-one]
C[C@@]1(O)CCC[C@H]1N1C(=O)C2(CC2)c2cnc(NC3CCN(S(=O)(=O)c4ncc[nH]4)CC3)nc21 (relative stereo) [Example 17, 2′-((1-((1H-imidazol-2-yl)sulfonyl)piperidin-4-yl)amino)-7′-((trans)-2-hydroxy-2-methylcyclopentyl)spiro[cyclopropane-1,5′-pyrrolo[2,3-d]pyrimidin]-6′(7′H)-one]
CCC(C(F)F)N1C(=O)C2(CC2)c2cnc(NC3CCN(S(C)(=O)=O)CC3)nc21 (racemic) [Example 10, 7′-(1,1-difluorobutan-2-yl)-2′-((1-(methylsulfonyl)piperidin-4-yl)amino)spiro[cyclopropane-1,5′-pyrrolo[2,3-d]pyrimidin]-6′(7′H)-one]
C[C@@H](C1CC1)N1C(=O)C2(CC2)c2cnc(NC3CCN(S(=O)(=O)c4ncc[nH]4)CC3)nc21 [Example 14, (S)-2′-((1-((1H-imidazol-2-yl)sulfonyl)piperidin-4-yl)amino)-7′-(1-cyclopropylethyl)spiro[cyclopropane-1,5′-pyrrolo[2,3-d]pyrimidin]-6′(7′H)-one]
O=C1N(C2CCCC2)c2nc(NC3CCN(S(=O)(=O)C4CC4)CC3)ncc2C12CC2 [Example 3, 7′-Cyclopentyl-2′-((1-(cyclopropylsulfonyl)piperidin-4-yl)amino)spiro[cyclopropane-1,5′-pyrrolo[2,3-d]pyrimidin]-6′(7′H)-one]
